Read-outs that look alike come from different tables or passages of the source.
Tests used:
Plasma stability = format: in vitro ADME, rat; conditions: for Plasma Stability (T = 1 hr): rat plasma, 37.5° C.
Method: A 20 μL aliquot of a 10 mM solution in DMSO of the test compound was added to […] of heparinized rat plasma (Lampire, P1-150N) to obtain a 100 μM final solution. The mixture was incubated for 1 h at 37.5° C. Aliquots of 100 μL were taken (0, 30 min, 1 h) and diluted with 200 μL of MeOH containing internal standard.

[1] = Liver microsomal stability; conditions: for Microsomal Stability (T = 1 hr): rat liver microsomes, 4 μM, 60 min; for microsomal stability compared to apogossypol: rat microsomal preparations
Method: Pooled rat liver microsomes (BD Biosciences, #452701) were preincubated with test compounds at 37.5° C. for 5 min in the absence of NADPH. The reaction was initiated by addition of NADPH and then incubated under the same conditions. […] One aliquot (100 μL) of the incubation mixture was withdrawn at 0, 15, 30, and 60 min and combined immediately with 200 μL of ACN/MeOH containing an internal standard. After mixing, the sample was centrifuged at approximately 13,000 rpm for 12 min. The supernatant was transferred into an autosampler vial and the amount of test compound was quantified using the Shimadzu LCMS 2010EV mass spectrometer. The change of the AUC (area under the curve) of the parent compound as function of time was used as a measure of microsomal stability.

BCL-XL [2] = target: T1, BCL-XL (Homo sapiens (Human), UniProt Q07817); assay: 1D 1H-NMR binding assay; conditions: for 1D 1H-NMR Binding Assay (BCL-XL): 4-point-rating scale, compounds 200 μM, BCL-XL 25 μM; on 1D 1H-NMR Binding Assay (BCL-XL): key: +++: Very Active; ++: Active; +: Mild; −: Weak
T1 sequence (Q07817 whole entry): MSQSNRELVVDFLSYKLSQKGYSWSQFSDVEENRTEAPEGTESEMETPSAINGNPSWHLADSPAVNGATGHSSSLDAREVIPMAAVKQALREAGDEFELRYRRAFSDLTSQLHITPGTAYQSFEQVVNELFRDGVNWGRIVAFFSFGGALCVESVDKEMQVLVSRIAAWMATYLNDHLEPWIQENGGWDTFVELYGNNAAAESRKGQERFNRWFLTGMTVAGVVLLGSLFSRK
Method: By observing the aliphatic region of the spectra, binding could be readily detected due to chemical shift changes in active site methyl groups of Ile, Leu, Thr, Val or Ala (region between −0.8 and 0.3 ppm). All experiments were performed with a 600 MHz spectrometer Bruker Avance 600 equipped with four rf channels and z-axis pulse-field gradients.

[3] = PAMPA (parallel artificial membrane permeation assay); conditions: for Cell Permeability: PAMPA, pH 7.2, 8 h
Method: PAMPA is parallel artificial membrane permeation assay. A 96-well microtiter plate (Millipore, # MSSACCEPTOR) was completely filled with aqueous buffer solution (pH 7.2) and covered with a microtiter filterplate (Millipore, # MAPBMN310). The hydrophobic filter material was impregnated with a 10% solution of hexadecane in hexane and the organic solvent was allowed to completely evaporate. Permeation studies were started by the transfer of 200 μL of a 100 μM test compound solution on top of the filterplate. In general phosphate buffer at pH 7.2 buffer was used. The maximum DMSO content of the stock solutions was <5%. In parallel, an equilibrium solution lacking a membrane was prepared using the exact concentrations and specifications but lacking the membrane. The concentrations of the acceptor and equilibrium solutions were determined using the Shimadzu LCMS-2010EV and AUC methods. The permeation of a compound through the membrane layer is described by the percentage permeation (% flux). The flux values were calculated considering the concentration of the acceptor compartment after 8 h and that of a reference well with the same concentration containing no membrane barrier.

GST-BCL-XL ΔTM protein = GST-BCL-XL ΔTM protein (Homo sapiens (Human), UniProt Q07817); assay: Competitive fluorescence polarization assay (FITC-Bak BH3 peptide); format: binding; conditions: for EC50: Table 3, read-out: EC50 FPA BCL-XL
GST-BCL-XL ΔTM protein, sequence (Q07817 1-209): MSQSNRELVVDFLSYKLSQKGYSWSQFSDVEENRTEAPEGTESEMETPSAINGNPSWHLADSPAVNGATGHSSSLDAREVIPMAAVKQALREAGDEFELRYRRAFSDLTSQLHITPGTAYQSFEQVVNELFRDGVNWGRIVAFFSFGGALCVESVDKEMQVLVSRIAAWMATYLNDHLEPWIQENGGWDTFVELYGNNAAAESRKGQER
Method: For competitive binding assays, 100 nM GST-BCL-XL ΔTM protein was preincubated with the tested compound at varying concentrations in 47.5 μL PBS (pH=7.4) in 96-well black plates at room temperature for 10 min, then 2.5 μL of 100 nM FITC-labeled Bak BH3 peptide was added to produce a final volume of 50 μL. The wild-type and mutant Bak BH3 peptides were included in each assay plate as positive and negative controls, respectively.
IC50 was determined by fitting the experimental data to a sigmoidal dose-response nonlinear regression model (SigmaPlot 10.0.1, Systat Software, Inc., San Jose, Calif., USA). Data reported are mean of three independent experiments ±standard error (SE). […] Fluorescence polarization was measured after 10 min.

GST-Mcl-1 = GST-Mcl-1 (Homo sapiens (Human), UniProt Q07820); assay: Fluorescence polarization assay (FITC-Bim BH3 peptide); format: binding; conditions: for EC50: read-out: EC50 FPA Mcl-1
GST-Mcl-1, sequence (Q07820 whole entry): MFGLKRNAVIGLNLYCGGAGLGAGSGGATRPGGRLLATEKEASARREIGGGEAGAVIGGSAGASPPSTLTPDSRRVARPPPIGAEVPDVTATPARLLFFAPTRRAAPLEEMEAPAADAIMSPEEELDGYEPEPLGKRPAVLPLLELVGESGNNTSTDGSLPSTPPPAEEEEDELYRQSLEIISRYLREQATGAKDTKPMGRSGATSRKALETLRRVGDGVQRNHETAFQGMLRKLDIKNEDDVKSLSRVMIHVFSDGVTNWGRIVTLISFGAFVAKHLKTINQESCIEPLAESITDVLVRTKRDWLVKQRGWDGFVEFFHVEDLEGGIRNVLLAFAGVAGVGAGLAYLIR
Method: After 30 min incubation at room temperature, the polarization values in millipolarization units were measured at excitation/emission wavelengths of 480/535 nm with a multilabel plate reader (PerkinElmer). IC50 was determined by fitting the experimental data to a sigmoidal dose-response nonlinear regression model (SigmaPlot 10.0.1, Systat Software, Inc., San Jose, Calif., USA). Data reported are mean of three independent experiments ±standard error (SE). […] Fluorescence polarization was measured after 10 min.

BCL-XL [4] = target: T1, BCL-XL; assay: Isothermal titration calorimetry (ITC); format: binding; conditions: for Kd: 25° C., pH 7.4
Method: Titrations were performed using a VP-ITC or ITC200 calorimeter from Microcal (Northampton, Mass.). BCL-XL was used at concentrations between 25 and 100 μM in 20 mM sodium phosphate buffer (pH 7.4) and 5-10% DMSO. Titrants were used at concentrations 10-15× of the protein in the same buffer. Titrations were carried out at 25° C. Data were analyzed using Microcal Origin software provided by the ITC manufacturer (Microcal, Northampton, Mass.).

GST-BCL-2 = GST-BCL-2 (Homo sapiens (Human), UniProt P10415); assay: Fluorescence polarization assay (FITC-Bim BH3 peptide); format: binding; conditions: for EC50: read-out: EC50 FPA BCL-2
GST-BCL-2, sequence (P10415 whole entry): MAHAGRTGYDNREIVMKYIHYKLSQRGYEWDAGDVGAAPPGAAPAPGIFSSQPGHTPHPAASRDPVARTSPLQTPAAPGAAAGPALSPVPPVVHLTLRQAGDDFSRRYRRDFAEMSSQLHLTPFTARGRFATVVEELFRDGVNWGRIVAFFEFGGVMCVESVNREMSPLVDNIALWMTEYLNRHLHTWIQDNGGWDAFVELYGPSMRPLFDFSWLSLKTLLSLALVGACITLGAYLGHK
Method: After 30 min incubation at room temperature, the polarization values in millipolarization units were measured at excitation/emission wavelengths of 480/535 nm with a multilabel plate reader (PerkinElmer). IC50 was determined by fitting the experimental data to a sigmoidal dose-response nonlinear regression model (SigmaPlot 10.0.1, Systat Software, Inc., San Jose, Calif., USA). Data reported are mean of three independent experiments ±standard error (SE). Performance of BCL-2 and Mcl-1 FPA are similar. […] Fluorescence polarization was measured after 10 min.

RS11846 cell line = assay: Apoptosis, Annexin V and propidium iodide assay; format: cell-based, human
Method: The apoptotic activity of the compounds against RS11846 cells was assessed by staining with Annexin V- and propidium iodide (PI). Lymphoma cell line, RS11846, was cultured in RPMI 1640 medium (Mediatech Inc., Herndon, Va. 20171) containing 10% fetal bovine serum (Mediatech Inc., Herndon, Va. 20171) and Penicillin/Streptomycin (Mediatech Inc., Herndon, Va. 20171). […] The percentage of viable cells was determined by FITC-Annexin V- and propidium iodide (PI)-labeling, using an Apoptosis Detection kit (BioVision Inc.), and analyzing stained cells by flow cytometry (FACSort; Bectin-Dickinson, Inc.; Mountain View, Calif.). Cells that were annexin-V-negative and PI-negative were considered viable.

H460 cell line = assay: Cell viability, ATP-LITE assay; format: cell-based, human
Method: (§1) The activity of the compounds against human cancer cell lines (PC3ML, H460, H1299, RS11846) were assessed by using the ATP-LITE assay (PerkinElmer). All cells were seeded in either F12 or RPMI1640 medium with 5 mM L-glutamine supplemented with 5% fetal bovine serum (Mediatech Inc.), penicillin and streptomycin (Omega). For maintenance, cells were cultured in 5% FBS. Cells plated into 96 well plates at varying initial densities depending on doubling time. H460 and H1299 plated at 2000 cells/well, A549 and PC3 at 3000 cells/well, and RS118456S at 10,000 cells/well. Compounds were diluted to final concentrations with 0.1% DMSO. Prior to dispensing compounds onto cells, fresh 5% media was placed into wells. Administration of compounds occurred 24 hours after seeding into the fresh media. Cell viability was evaluated using ATP-LITE reagent (PerkinElmer) after 72 hours of treatment. Data were normalized to the DMSO control-treated cells using Prism version 5.01 (Graphpad Software).

PC3ML cells = assay: Cell viability, ATP-LITE assay; format: cell-based, human
Method: as §1

B6BCL2 mouse = assay: Spleen weight in B6BCL2 transgenic mice after intraperitoneal injection; format: in vivo
Method: Transgenic mice expressing BCL-2 have been described as the B6 line. The BCL-2 transgene represents a minigene version of a t(14;18) translocation in which the human BCL-2 gene is fused with the immunoglobulin heavy-chain (IgH) locus and associated IgH enhancer. The transgene was propagated on the Balb/c background.
After 24 hours, B6BCL2 mice were sacrificed by intraperitoneal injection of lethal dose of Avertin. Spleen was removed and weighed. […] Spleen tissue was fixed in z-FIX for 3 days and rinsed in PBS, and saved for histological analysis of spleen (H&E staining and TUNEL assay).

[5] = 1-2 days; read-out: RS11846 EC50 (Annexin V- and propidium iodide assay)

SMILES	Plasma Stability (T = 1 hr) (Plasma stability) [%]	Microsomal Stability (T = 1 hr) [1] [%]	1D 1H-NMR Binding Assay (BCL-XL) (BCL-XL [2])	Cell Permeability [3]	EC50 (GST-Mcl-1) [nM]	EC50 (GST-BCL-2) [nM]	EC50 (RS11846 cell line; [5]) [µM]	further results
Cc1cc2c(C(=O)C3CCCC3)c(O)c(O)cc2c(O)c1-c1c(C)cc2c(C(=O)C3CCCC3)c(O)c(O)cc2c1O [Compound VI, (1,1′,6,6′,7,7′-hexahydroxy-3,3′-dimethyl-2,2′-binaphthyl-5,5′-diyl)bis(cyclopentylmethanone)]	79	27	+	Low				microsomal stability compared to apogossypol [1]: degraded faster than apogossypol
Cc1cc2c(C(=O)c3cccc4ccccc34)c(O)c(O)cc2c(O)c1-c1c(C)cc2c(C(=O)c3cccc4ccccc34)c(O)c(O)cc2c1O [Compound VIII, (1,1′,6,6′,7,7′-hexahydroxy-3,3′-dimethyl-2,2′-binaphthyl-5,5′-diyl)bis(naphthalen-1-ylmethanone)]	62	52	+	Low	2200	1900	4.2	EC50 (GST-BCL-XL ΔTM protein): 160 nM; Kd (BCL-XL [4]): 2750 nM
Cc1cc2c(C(=O)c3ccccc3)c(O)c(O)cc2c(O)c1-c1c(C)cc2c(C(=O)c3ccccc3)c(O)c(O)cc2c1O [Compound VII, (1,1′,6,6′,7,7′-hexahydroxy-3,3′-dimethyl-2,2′-binaphthyl-5,5′-diyl)bis(phenylmethanone)]			+					EC50 (H460 cell line; 72 hours, ATP-LITE): 310 nM
Cc1cc2c(C(=O)C(C)(C)C)c(O)c(O)cc2c(O)c1-c1c(C)cc2c(C(=O)C(C)(C)C)c(O)c(O)cc2c1O [Compound XVIII, 1,1′-(1,1′,6,6′,7,7′-hexahydroxy-3,3′-dimethyl-2,2′-binaphthyl-5,5′-diyl)bis(2,2-dimethylpropan-1-one)]	90	30	++	Medium				microsomal stability compared to apogossypol [1]: degraded faster than apogossypol
Cc1cc2c(C(=O)Cc3ccccc3)c(O)c(O)cc2c(O)c1-c1c(C)cc2c(C(=O)Cc3ccccc3)c(O)c(O)cc2c1O [Compound I, 1,1′-(1,1′,6,6′,7,7′-hexahydroxy-3,3′-dimethyl-2,2′-binaphthyl-5,5′-diyl)bis(2-phenylethanone)]	85	64	+++	Medium	520	360	4.9	times more potent than apogossypol, H460 EC50 (H460 cell line): 4-5 times; fold more potent than apogossypol, PC3ML EC50 (PC3ML cells): 2-5 fold; degraded after 1 hour incubation in rat plasma (Plasma stability; 1 hour): 15%; times more effective than apogossypol, FP displacement BCL-XL (GST-BCL-XL ΔTM protein): ~20 times; EC50 (GST-BCL-XL ΔTM protein): 190 nM; fold more potent than apogossypol, Mcl-1 FPA (GST-Mcl-1): ~5 fold; macroscopic toxicity (B6BCL2 mouse; mouse, in vivo): no macroscopic toxicity; reduction in spleen weight, single mouse (B6BCL2 mouse; single BCL-2 transgenic mouse, 60 μmol/kg, intraperitoneal, 24 hours): 40%; reduction of spleen weight, groups of six mice (B6BCL2 mouse; six mice, P<0.0001 vs control): ~40%; chemical shift changes in active site methyl groups of BCL-XL (BCL-XL [2]; 1D 1H-NMR spectra): significant chemical shift changes; times more potent than apogossypol, Kd ITC BCL-XL (BCL-XL [4]): 10 times; Kd (BCL-XL [4]): 170 nM; fold more potent than apogossypol, BCL-2 FPA (GST-BCL-2): approximately 8 fold; cell membrane permeability compared to apogossypol [3]: improved
Cc1cc2c(C(=O)c3nc4ccccc4s3)c(O)c(O)cc2c(O)c1-c1c(C)cc2c(C(=O)c3nc4ccccc4s3)c(O)c(O)cc2c1O [Compound XVII, (1,1′,6,6′,7,7′-hexahydroxy-3,3′-dimethyl-2,2′-binaphthyl-5,5′-diyl)bis(benzo[d]thiazol-2-ylmethanone)]	90	68	++	Medium				IC50 (GST-BCL-XL ΔTM protein; read-out: FPA IC50 (BCL-XL)): 390 nM
Cc1cc2c(C(=O)c3ccc(C(F)(F)F)cc3)c(O)c(O)cc2c(O)c1-c1c(C)cc2c(C(=O)c3ccc(C(F)(F)F)cc3)c(O)c(O)cc2c1O [Compound XI, (1,1′,6,6′,7,7′-hexahydroxy-3,3′-dimethyl-2,2′-binaphthyl-5,5′-diyl)bis((4-(trifluoromethyl)phenyl)methanone)]			+				3.8	
Cc1ccc(CC(=O)c2c(O)c(O)cc3c(O)c(-c4c(C)cc5c(C(=O)Cc6ccc(C)cc6)c(O)c(O)cc5c4O)c(C)cc23)cc1 [Compound XII, 1,1′-(1,1′,6,6′,7,7′-hexahydroxy-3,3′-dimethyl-2,2′-binaphthyl-5,5′-diyl)bis(2-p-tolylethanone)]	72			Low and Medium	1100	780		times more potent than apogossypol, H460 EC50 (H460 cell line): 4-5 times; EC50 (PC3ML cells; 72 hours, ATP-LITE): 2500 nM; EC50 (RS11846 cell line; read-out: RS11846 EC50 (Annexin V- and propidium iodide assay); 1-2 days): 3 µM
